These results are taken from patent publication US8663619B2, “Murgantiol as an indoor stink bug attractant” (Sterling International Inc., priority 2011, dated 2014).

Assay [1] concerns brown marmorated stink bug (BMSB), Halyomorpha halys (Stål). Briefly: Indoor trapping experiment with murgantiol-baited Rescue! Stink Bug Traps in homes. The format is in vivo. Conditions: for behavioral attraction of indoor stink bugs to baited traps: 5 mg lure on rubber septum, traps inside homes, early May, compared to blank control; for stink bugs caught relative to the blank control traps: 5 mg lure, indoor traps, blank control caught average 1 bug/trap. Here is the method:
A trapping experiment was carried out inside three homes with decent overwintering stink bug populations in Pittsburgh, Pa., during twelve days in early May to study potential attraction of the BMSB adults to a known Harlequin bug pheromone, murgantiol. During or before the experiment, overwintering stink bugs started waking up from their hibernation stage and walking/crawling inside homes. Three treatment lures and a blank control were tested using Sterling Rescue!® Stink Bug Traps (FIG. 1) in a block design. The three treatments included (i) 5 mg of more polar murgantiol mixture (a mixture of 8 more polar stereoisomers); (ii) 5 mg of less polar murgantiol mixture (a mixture of 8 less polar stereoisomers); and (iii) 5 mg of a racemic mixture of all 16 murgantiol stereoisomers. The test samples of (i), (ii), and (iii) were synthesized and separated based on the methods described by Zahn et al., J. Chem. Ecol. 34:238 (2008). The following scheme outlines the method starting from citronellal to prepare a racemic mixture of stereomers:
Lures were prepared by loading hexane solutions of the test compounds with 1% butylated hydroxytoluene (BHT) added as stabilizer onto grey rubber septa (5 mm sleeve-type; The West Co., Lititz, Pa.) via a rotor evaporator. The blank control dispensers were made in the same fashion as the treatment lures, but without any murgantiol mixtures—that is, rubber septum with hexane only. A set of four Sterling Rescue!® Stink Bug Traps baited with three different isomer mixture test samples of murgantiol dispensers and the blank control were set up in the same room of each selected home on the floor or hung from walls near windows (where stink bug activities were seen earlier). The starting positions of the four test traps within each set (room) were assigned randomly. The distance between traps within the same set was about 8-10 feet, depending on the size of each test room. Traps were checked every day and emptied when ≧5 bugs were captured in the best trap within the set, and their positions were re-randomized for a new replicate to minimize any positional effects.
Trap catch data were converted to proportion (P) of total captured bugs within each replicate to meet the assumptions of normality and homogeneity of variances for ANOVA (analysis of variance). Means were compared by ANOVA followed by the Duncan's multiple range test at α=0.05.

Assay [2] has as its system Harlequin bug, Murgantia histrionica (Hahn). Conditions: both sexes; insect-produced and synthetic murgantiol; laboratory bioassays; cited from earlier work.

Turning to `CC(CCC1OC1(C)C)C1C=CC(C)(O)CC1` (racemic) [racemic mixture of all 16 murgantiol stereoisomers], in assay [1], the “behavioral attraction of indoor stink bugs to baited traps” value (“behavioral attraction” below) is reported as “significant attraction” and the “stink bugs caught relative to the blank control traps” value is “five times”.
For the compound `CC(CCC1OC1(C)C)C1C=CC(C)(O)CC1` (single isomer, unassigned) [less polar murgantiol mixture], in assay [1], the “behavioral attraction” value is “weakly attractive”.
As to `CC(CCC1OC1(C)C)C1C=CC(C)(O)CC1` (single isomer, unassigned) [more polar murgantiol mixture], in assay [1], the “behavioral attraction” value is given as “strong attraction” and the “stink bugs caught relative to the blank control traps” value is “six times”.
Consider `CC(CCC1OC1(C)C)C1C=CC(C)(O)CC1` (stereo not shown) [murgantiol, 4-[3-(3,3-dimethyloxiran-2-yl)-1-methylpropyl]-1-methylcyclohex-2-en-1-ol], for which the “attraction of sexually mature Harlequin bugs” value in assay [2] is reported as “attracted sexually mature Harlequin bugs of both sexes”. Moreover, the “attractiveness to BMSB adults indoors” value in assay [1] (both sexes, indoors during the overwintering and transition periods) was “strongly attractive”.
